Results reported in patent US20100113453A1, “Sublingual Formulations of D-Cycloserine and Methods of Using Same” (priority 2007, published 2010).
Read-outs that look alike come from different tables or passages of the source.

How the values were obtained:
[1] = sub-antimicrobial dose, cited from earlier work
[2] = system: Mycobacterium tuberculosis strains; settings: typical Mycobacterium tuberculosis strains; cited from earlier work
[3] = cited from earlier work
[4] = Absorption into the blood following sublingual versus oral administration of D-cycloserine; type: in vivo, Sprague-Dawley rats; settings: rat; for concentration at 0 min / concentration at 10 min / concentration at 20 min / concentration at 40 min / concentration at 80 min: male, Sprague-Dawley, plasma, 15 mg/kg, read-out: DCS plasma level; for concentration at 0 min: 0 minutes (baseline before DCS administration); for concentration at 10 min: 10 minutes elapsed; for concentration at 20 min: 20 minutes elapsed; for concentration at 40 min: 40 minutes elapsed; for concentration at 80 min: 80 minutes elapsed
Protocol: Subjects: 18 male, Sprague-Dawley rats (Charles River, Raleigh N.C.).
Procedure: The rats were implanted with intravenous catheters using the methods of Thrivikraman et al., (“Jugular vein catheterization for repeated blood sampling in the unrestrained conscious rat” (2002) Brain Res. Brain Res. Protoc., 10(2), p. 84-94). Following two days of recovery, rats were lightly anesthetized with isofluorothane and given DCS either sublingually (n=10) or orally (n=8). D-cycloserine was dissolved in saline and given at a volume of 75 μL/rat sublingually and (after dilution by a factor of two) 150 μL/rat when administered orally (concentration of 15 mg/kg). Aliquots of 0.5-1.0 mL blood samples were collected: at baseline before DCS administration; and subsequently at 10, 20, 40, and 80 minutes after DCS administration. Blood samples were injected into pre-heparinized tubes and immediately placed on ice. Because the assays required at least 1 mL of plasma, samples from two rats given the same treatment and sampled at the same time were combined so that there were 25 samples from the sublingual group (10 rats/2×5 samples) and 20 samples from the oral group (8 rats/2×5 samples). Plasma was separated by centrifugation at 770 g for 10 minutes, placed in polypropylene tubes, frozen at −80° C., then shipped on dry ice to an outside laboratory to assay DCS levels. […] At the dosages studied, the resulting DCS plasma levels were near the lower detection limits of the assay.

[5] = typical doses for the treatment of tuberculosis (500-1000 mg/day), chronic dosing; cited from earlier work

## NC1CONC1=O (stereo not drawn) [DCS, 4-amino-1,2-oxazolidin-3-one]
[1]; child subject, less than or equal to 2 mg/kg
  peak serum concentrations: less than or equal to 5 μg/mL
[1]; less than or equal to 2 mg/kg and greater than about 0.2 mg/kg
  peak serum concentrations: less than or equal to 5 μg/mL
[2]
  minimum inhibitory concentrations (MIC) in vitro: 6 to 25 µg/mL
[3]; dose of 500 mg/day, chronic treatment
  serum concentrations generally maintained: 25000 to 30000 ng/mL
[3]; known oral tablets, primarily renal excretion
  half-life: 10 h
[3]; known oral tablets
  time of peak serum concentrations after dosing: 3 to 8 h
[4]; other: sublingual, sublingual
  concentration at 0 min: 0 ng/mL
  concentration at 10 min: 900 ng/mL
  concentration at 20 min: 1600 ng/mL
  concentration at 40 min: 4700 ng/mL
  concentration at 80 min: 5200 ng/mL
[4]; oral
  concentration at 0 min: 0 ng/mL
  concentration at 10 min: 1600 ng/mL
  concentration at 20 min: 2300 ng/mL
  concentration at 40 min: 5400 ng/mL
  concentration at 80 min: 5400 ng/mL
[4]; sublingual versus oral
  blood plasma concentrations after sublingual administration relative to oral administration: comparable to those achieved by oral administration
[5]
  side effects in treated subjects: significant neurological side effects
